In PubChem BioAssay (NCI):
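1) Cells in 96-well plates. 2) Compound, 48 h, 5 concentrations. 3) Linear interpolation between surrounding doses. 4) Unreached endpoint = highest concentration. GI50: concentration for 50% inhibition of growth. TGI: concentration producing complete growth inhibition.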

Experiments:
Assay in all cases: DTP human tumour cell line panel, 48 h
OVCAR-3 ovarian = tested on: OVCAR-3 ovarian
NCI-H522 lung = tested on: NCI-H522 lung
K-562 leukemia = tested on: K-562 leukemia
SK-MEL-2 melanoma = tested on: SK-MEL-2 melanoma
HCT-116 colon = tested on: HCT-116 colon
NCI-H226 lung = tested on: NCI-H226 lung
NCI-H23 lung = tested on: NCI-H23 lung
SN12C renal = tested on: SN12C renal
U251 CNS = tested on: U251 CNS
SNB-19 CNS = tested on: SNB-19 CNS

Row | Compound | GI50 (OVCAR-3 ovarian) [µM] | TGI (OVCAR-3 ovarian) [µM] | GI50 (NCI-H522 lung) [µM] | TGI (NCI-H522 lung) [µM] | GI50 (K-562 leukemia) [µM] | TGI (K-562 leukemia) [µM] | GI50 (SK-MEL-2 melanoma) [µM] | TGI (SK-MEL-2 melanoma) [µM] | GI50 (HCT-116 colon) [µM] | TGI (HCT-116 colon) [µM] | GI50 (NCI-H226 lung) [µM] | TGI (NCI-H226 lung) [µM] | GI50 (NCI-H23 lung) [µM] | TGI (NCI-H23 lung) [µM] | GI50 (SN12C renal) [µM] | TGI (SN12C renal) [µM] | TGI (U251 CNS) [µM] | GI50 (SNB-19 CNS) [µM] | TGI (SNB-19 CNS) [µM] | GI50 (U251 CNS) [µM]
1 | CC(=O)[CH-]C(=O)c1ccccc1.CC(=O)[CH-]C(=O)c1ccccc1.C[C@]12CCC(=O)C=C1CC[C@@H]1C2CC[C@@]2(C)C1CC[C@@H]2[O-].C[C@]12CCC(=O)C=C1CC[C@@H]1C2CC[C@@]2(C)C1CC[C@@H]2[O-].Cl.[Ti+4] (stereo partly drawn) | 13.2 | 65.5 | 13.6 | 34.8 | 23.2 | > 100 | 12.7 | 31.4 | 27.6 | > 100 | 12.9 | 35.2 | 16.2 | 32.1 | 20.8 | 70.6 | – | – | – | –
2 | NCCNCc1c2ccccc2c(CNCCN)c2ccccc12 | – | 70.8 | – | 21.2 | – | 36.7 | – | 29.1 | – | 48.3 | – | – | – | 35.2 | – | 58.9 | 97.7 | – | – | –
3 | CCCCCCCCn1ccc2cc(NC(=O)Cn3cc(CN4CCCCC4)nn3)ccc21 | 3.42 | 13.3 | 1.8 | 4 | – | – | 1.9 | 3.68 | 1.7 | 3.19 | 8.65 | 27.7 | 2.35 | 6.34 | 1.8 | 3.75 | 3.34 | 1.82 | 3.65 | 1.78
4 | O=C1CCSC2=C1SCc1sccc12 | – | > 100 | – | > 100 | – | > 100 | – | > 100 | – | – | – | – | – | > 100 | – | > 100 | – | – | > 100 | –
5 | CCNC(=O)O/N=C1\CCC2[C@@H]3CC=C4C[C@@H](OC5CCCCO5)CC[C@]4(C)C3CC[C@]12C (stereo partly drawn) | – | 10.7 | – | – | – | – | – | 5.68 | – | > 100 | – | – | – | 11.1 | – | 6.07 | 4.29 | – | 9.94 | –
6 | CC1(c2ccccc2)CC(c2cccc([N+](=O)[O-])c2)=NO1 (stereo not drawn) | – | > 100 | – | > 100 | – | – | – | > 100 | – | > 100 | – | > 100 | – | > 100 | – | > 100 | > 100 | – | – | –
7 | COc1cc(/C=C/C(=O)N2CCN(C(=O)c3cc(OC)c(OC)c(OC)c3)CC2)ccc1OCCCOc1cc2c(cc1OC)C(=O)N1CCC[C@H]1C=N2 | 0.219 | 0.504 | 0.213 | 3.25 | 0.324 | > 100 | 0.26 | 0.703 | – | – | 0.286 | 1.19 | 0.296 | 0.974 | 0.303 | 21.8 | 6.06 | 0.362 | > 40.3 | 0.227
8 | CCOc1cccc(-c2nc(N)nc(Nc3ccccc3SSc3ccccc3Nc3nc(N)nc(-c4cccc(OCC)c4)n3)n2)c1 | 5.37 | > 100 | 7.77 | 48.9 | 3.33 | > 100 | 6.12 | > 100 | 3.95 | > 100 | 4.5 | > 100 | 3.79 | > 100 | 2.32 | 14.8 | – | 4.94 | > 100 | –
9 | CC1=CC(N2C(=O)C(C)=CC2O)NC1=O (stereo not drawn) | – | > 100 | – | > 100 | – | – | – | > 100 | – | > 100 | – | > 100 | – | > 100 | – | > 100 | > 100 | – | > 100 | –
10 | COC1=CC(c2ccc[nH]2)=N/C1=C\c1[nH]c(C)c(C(=O)CCCCC(=O)Oc2ccc3c(c2)CCC2C3CC[C@]3(C)[C@@H](O)CC[C@@H]23)c1C (stereo partly drawn) | > 100 | > 100 | – | – | – | – | 9.88 | > 100 | 3.1 | 13.6 | 8.88 | > 100 | 39.9 | > 100 | > 100 | > 100 | > 100 | 53.1 | > 100 | 7.79
11 | C=C(C(=C)P(=S)(c1ccccc1)c1ccccc1)P(=S)(c1ccccc1)c1ccccc1 | – | > 100 | – | > 100 | – | > 100 | – | > 100 | – | > 100 | – | – | – | > 100 | – | > 100 | > 100 | – | > 100 | –
12 | OCc1ccc(N2CCc3ccccc3C2)cc1Cl | < 0.0161 | 0.0389 | 17.2 | 61.1 | < 0.0224 | 19 | – | – | < 0.01 | 14.1 | 0.0134 | 0.0768 | 13.9 | 44 | 11.4 | > 100 | > 44.5 | 31 | > 100 | < 0.0292
13 | N/N=c1\c2ccccc2c2cc3c(cc12)/c(=N/N)c1ccccc13 | – | – | – | > 100 | – | > 100 | – | > 100 | – | > 100 | – | > 100 | – | > 100 | – | > 100 | > 100 | – | > 100 | –
14 | COc1cc(/C=C2\C[C@H]3[C@@H]4CC=C5C[C@@H](O)CC[C@]5(C)[C@H]4CC[C@]3(C)[C@H]2O)ccc1OCCCn1ccnc1 | 0.946 | 2.9 | 22.3 | > 50 | 2.69 | > 50 | 32.7 | > 50 | – | – | 4.09 | 15.2 | 9.31 | 40.8 | 2.73 | 13.2 | 1.72 | 12.4 | > 50 | 0.923
15 | CC1(C)[C@@H](OC(=O)CCC(=O)O)CC[C@]2(C)[C@H]3C(=O)C=C4[C@@H]5C[C@@](C)(C(=O)O)CC[C@]5(C)CC[C@@]4(C)[C@]3(C)CC[C@@H]12 | 50.4 | 62.9 | 51.1 | 80.7 | 56.2 | 230 | 52.1 | 67.9 | 51.8 | 75.6 | – | – | 60.1 | 115 | 51.9 | 105 | 77.4 | 55 | 141 | 53.2
16 | O=C(/C(=C\c1ccc(Cl)cc1)c1ccccc1)c1ccccc1 | – | – | – | > 100 | – | > 100 | – | 75 | – | > 100 | – | > 100 | – | > 100 | – | > 100 | > 100 | – | – | –
17 | Clc1cc(Cl)cc(N2N=C(c3cccc(Nc4ccncc4)c3)CC2c2ccc3c(c2)OCO3)c1 (stereo not drawn) | 1.73 | 3.27 | – | – | 2.06 | 4.86 | – | – | 1.7 | 3.42 | 1.91 | 4.3 | 1.79 | 3.45 | 1.66 | 3.13 | – | – | – | –
18 | OCc1c[te]c(-c2ccccc2)c1 | – | 30.2 | – | – | – | > 100 | – | 85.5 | – | 33.3 | – | 85.1 | – | 62.8 | – | 78.7 | > 100 | – | – | –
19 | Cc1cc(C(C)(C)C)cc(CNC2CCCCC2)c1O | – | 34.2 | – | 25.2 | – | 51.3 | – | 34 | – | 28.8 | – | – | – | 29.2 | – | 29.5 | 29.9 | – | 31.9 | –
20 | Cc1ccc(S(=O)OCC23CC4CC(CC(C4)C2)C3)cc1 (stereo not drawn) | – | > 100 | – | > 100 | – | > 100 | – | – | – | > 100 | – | > 100 | – | > 100 | – | > 100 | > 100 | – | > 100 | –
21 | CC(C)(C)c1c2c(c(C(C)(C)C)c3c1OCN(Cc1ccccc1)C3)OCN(Cc1ccccc1)C2 | – | 32.4 | – | 23.2 | – | 54.5 | – | 51.5 | – | 24.4 | – | – | – | 27.4 | – | 34.9 | 29.6 | – | 34.7 | –
22 | COc1cc([N+](=O)[O-])c(OC)cc1-c1nc2sc(Cl)cn2c1/C=N/NC1=NCCN1 | 0.882 | 2.62 | 2.93 | > 29.7 | 3.56 | > 100 | 22.9 | > 100 | 0.249 | 0.616 | – | – | 0.937 | 2.42 | 1.67 | 3.52 | 3.02 | – | – | 1.65
23 | O=C(COC(=O)c1cccc2c(=O)c3ccccc3[nH]c12)Nc1ccc(C(=O)O)cc1 | – | > 100 | – | > 100 | – | > 100 | – | – | – | > 100 | – | > 10 | – | > 100 | – | > 100 | > 100 | – | > 100 | –
24 | Cc1cc(C)nc(NS(=O)(=O)c2ccc(Nc3c4ccc(Cl)cc4nc4c(C(=O)NCCN(C)C)cccc34)cc2)n1 | – | > 100 | – | > 100 | – | > 100 | – | – | – | > 100 | – | > 100 | – | > 100 | – | > 100 | > 100 | – | > 100 | –
25 | CCN1Cc2nc3sc(C)c(C)c3c(=O)n2C=C1C | 2.75 | 9.74 | – | – | 3.35 | 17.8 | 21.1 | > 100 | 1.72 | 4.17 | 8.17 | 21.9 | 7.26 | > 100 | 13.8 | 62.1 | > 100 | 17.9 | > 100 | 4.23
26 | COC(=O)C1=C(C(=O)OC)C2(C)Nc3ccccc3C2=C(c2ccccc2)C1 (stereo not drawn) | – | 52.2 | – | 35.9 | – | 47.8 | – | 39 | – | 44 | – | – | – | 45.7 | – | 57.7 | 41.6 | – | 75.5 | –
